pIC50: −log10 of the molar value. Positions of bridges follow the written chain, without caps; N, C: chain ends. Non-standard residues stand in square brackets, D forms with d. Residues, ends and D or L forms follow the SMILES beside them. *: point of attachment. hPhe(3-Cl-4-CF3) = N[C@@H](CCc1ccc(C(F)(F)F)c(Cl)c1)C(=O)O; NMePhe(4-F) = CN[C@@H](Cc1ccc(F)cc1)C(=O)O; NMe3Pal = CN[C@@H](Cc1cccnc1)C(=O)O; NMeCha = CN[C@@H](CC1CCCCC1)C(=O)O; NMeAhp(2) = CCCCC[C@H](NC)C(=O)O; NMeChg = CN[C@H](C(=O)O)C1CCCCC1; NMeF = CN[C@@H](Cc1ccccc1)C(=O)O; NMeD = CN[C@@H](CC(=O)O)C(=O)O; NMeL = CN[C@@H](CC(C)C)C(=O)O; Ahp(2) = CCCCC[C@H](N)C(=O)O; NMeV = CN[C@H](C(=O)O)C(C)C; d(β3hA) = C[C@@H](N)CC(=O)O; NMeS = CN[C@@H](CO)C(=O)O; Morpholide = C1CN(*)CCO1; NMeA = CN[C@@H](C)C(=O)O; Nle = CCCC[C@H](N)C(=O)O; Piperidide = C1CCN(*)CC1; Pyrrolidide = C1CCN(*)C1; dNMeA = CN[C@H](C)C(=O)O; Ac5c = NC1(C(=O)O)CCCC1; Aze = O=C(O)[C@@H]1CCN1; Sar = CNCC(=O)O
What follows are molecules tested against T1, Kras and SOS1 (biotin-tagged human Kras loaded with GDP, His-tagged human SOS1) (Homo sapiens, UniProt P01116, G12D) (assay: Protein-protein interaction inhibition between Kras and SOS1 (KrasGl2D-SOS PPI) using AlphaScreen). Details: AlphaScreen; biotin-tagged human Kras loaded with GDP, His-tagged human SOS1; read-out: KRAS G12D-SOS PPI IC50.
T1 construct: made in house; host or cells: E. coli (stated for Kras only)
T1 sequence (P01116 1-188 isoform P01116-2 G12D): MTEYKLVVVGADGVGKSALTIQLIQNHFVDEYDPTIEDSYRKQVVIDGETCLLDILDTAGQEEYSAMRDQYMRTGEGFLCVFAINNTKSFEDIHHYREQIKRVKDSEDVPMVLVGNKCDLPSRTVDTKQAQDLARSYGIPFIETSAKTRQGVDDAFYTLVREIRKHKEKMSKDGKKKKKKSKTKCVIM
Assay type: binding
Procedure, shortened: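 AlphaScreen format: Ni donor beads capture His-SOS1, streptavidin acceptor beads capture biotinylated Kras (E. coli-expressed, GDP-loaded post-purification). Excite 680 nm, read 520-620 nm.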

| SMILES | pIC50 |
| --- | --- |
| CC[C@H](C)[C@@H]1NC(=O)[C@H](C)N(C)C(=O)C[C@@H](C)NC(=O)[C@H](C(C)C)N(C)C(=O)C2(CCCC2)NC(=O)[C@@H]2CCCN2C(=O)[C@H](CCc2ccc(C(F)(F)F)c(Cl)c2)NC(=O)[C@H]2CCCN2C(=O)[C@H](Cc2ccc(F)cc2)N(C)C(=O)[C@@H]2CCCN2C(=O)CN(C)C1=O [Compound 1667] (cyclo([Ac5c][NMeV][d(β3hA)][NMeA]I[Sar]P[NMePhe(4-F)][dP][hPhe(3-Cl-4-CF3)]P)) | 7.89 |
| CC[C@H](C)[C@@H]1NC(=O)[C@H](CC(C)C)N(C)C(=O)C[C@@H](C(=O)N2CCCCC2)N(C)C(=O)[C@H](C2CCCCC2)N(C)C(=O)C2(CCCC2)NC(=O)[C@@H]2CCCN2C(=O)[C@H](CCc2ccc(C(F)(F)F)c(Cl)c2)NC(=O)CN(C)C(=O)[C@H](C)N(C)C(=O)CN(C)C(=O)CN(C)C1=O [Compound 1681] ([NMeL]I[Sar][Sar][NMeA][Sar][hPhe(3-Cl-4-CF3)]P[Ac5c][NMeChg][NMeD]-Piperidide; lactam N-11) | 8.51 |
| CC[C@H](C)[C@@H]1NC(=O)[C@H](CC(C)C)N(C)C(=O)C[C@@H](C(=O)N2CCCCC2)N(C)C(=O)[C@H](C2CCCCC2)N(C)C(=O)C2(CCCC2)NC(=O)[C@@H]2CCCN2C(=O)[C@H](CCc2ccc(C(F)(F)F)c(Cl)c2)NC(=O)CN(C)C(=O)[C@H](CO)N(C)C(=O)CN(C)C(=O)CN(C)C1=O [Compound 1687] ([NMeL]I[Sar][Sar][NMeS][Sar][hPhe(3-Cl-4-CF3)]P[Ac5c][NMeChg][NMeD]-Piperidide; lactam N-11) | 8.38 |
| CC[C@H](C)[C@@H]1NC(=O)[C@H](C)N(C)C(=O)C[C@@H](C)NC(=O)[C@H](C2CCCCC2)N(C)C(=O)C2(CCCC2)NC(=O)[C@@H]2CCCN2C(=O)[C@H](CCc2ccc(C(F)(F)F)c(Cl)c2)NC(=O)CN(C)C(=O)[C@H](CC2CCCCC2)N(C)C(=O)CN(C)C(=O)CN(C)C1=O [Compound 1688] (cyclo([Ac5c][NMeChg][d(β3hA)][NMeA]I[Sar][Sar][NMeCha][Sar][hPhe(3-Cl-4-CF3)]P)) | 7.62 |
| CC[C@H](C)[C@@H]1NC(=O)[C@H](C)N(C)C(=O)C[C@@H](C)NC(=O)[C@H](C(C)C)N(C)C(=O)C2(CCCC2)NC(=O)[C@@H]2CCCN2C(=O)[C@H](CCc2ccc(C(F)(F)F)c(Cl)c2)NC(=O)[C@@H](C)N(C)C(=O)[C@H](Cc2ccccc2)N(C)C(=O)CN(C)C(=O)CN(C)C1=O [Compound 1691] (cyclo([Ac5c][NMeV][d(β3hA)][NMeA]I[Sar][Sar][NMeF][dNMeA][hPhe(3-Cl-4-CF3)]P)) | 6.92 |
| CCCCC[C@@H]1NC(=O)[C@H](CC(C)C)N(C)C(=O)C[C@@H](C(=O)N2CCCCC2)N(C)C(=O)[C@H](C2CCCCC2)N(C)C(=O)C2(CCCC2)NC(=O)[C@@H]2CCCN2C(=O)[C@H](CCc2ccc(C(F)(F)F)c(Cl)c2)NC(=O)CN(C)C(=O)[C@H](CC2CCCCC2)N(C)C(=O)CN(C)C(=O)CN(C)C1=O [Compound 1692] ([NMeL][Ahp(2)][Sar][Sar][NMeCha][Sar][hPhe(3-Cl-4-CF3)]P[Ac5c][NMeChg][NMeD]-Piperidide; lactam N-11) | 8.46 |
| CC[C@H](C)[C@@H]1NC(=O)[C@H](C)N(C)C(=O)C[C@@H](C(=O)N2CCCCC2)N(C)C(=O)[C@H](C(C)C)N(C)C(=O)C2(CCCC2)NC(=O)[C@@H]2CCCN2C(=O)[C@H](CCc2ccc(C(F)(F)F)c(Cl)c2)NC(=O)CN(C)C(=O)[C@H](Cc2ccc(F)cc2)N(C)C(=O)[C@@H]2CCCN2C(=O)CN(C)C1=O [Compound 1698] ([NMeA]I[Sar]P[NMePhe(4-F)][Sar][hPhe(3-Cl-4-CF3)]P[Ac5c][NMeV][NMeD]-Piperidide; lactam N-11) | 8.92 |
| CC[C@H](C)[C@@H]1NC(=O)[C@H](C)N(C)C(=O)C[C@@H](C(=O)N2CCOCC2)N(C)C(=O)[C@H](C2CCCCC2)N(C)C(=O)C2(CCCC2)NC(=O)[C@H](Cc2cccnc2)N(C)C(=O)[C@H](CCc2ccc(C(F)(F)F)c(Cl)c2)NC(=O)CN(C)C(=O)[C@H](CC2CCCCC2)N(C)C(=O)[C@@H]2CCN2C(=O)CN(C)C1=O [Compound 1703] ([NMeA]I[Sar][Aze][NMeCha][Sar][hPhe(3-Cl-4-CF3)][NMe3Pal][Ac5c][NMeChg][NMeD]-Morpholide; lactam N-11) | 9.39 |
| CC[C@H](C)[C@@H]1NC(=O)[C@H](C)N(C)C(=O)C[C@@H](C(=O)N2CCCC2)N(C)C(=O)[C@H](C(C)C)N(C)C(=O)C2(CCCC2)NC(=O)[C@@H]2CCCN2C(=O)[C@H](CCc2ccc(C(F)(F)F)c(Cl)c2)NC(=O)[C@@H](C)N(C)C(=O)[C@H](CC2CCCCC2)N(C)C(=O)[C@@H]2CCCN2C(=O)CN(C)C1=O [Compound 1715] ([NMeA]I[Sar]P[NMeCha][dNMeA][hPhe(3-Cl-4-CF3)]P[Ac5c][NMeV][NMeD]-Pyrrolidide; lactam N-11) | 8.62 |
| CCCCC[C@H]1C(=O)N(C)[C@H](C(=O)N2CCCCC2)CC(=O)N(C)[C@@H](CC(C)C)C(=O)N[C@@H]([C@@H](C)CC)C(=O)N(C)CC(=O)N(C)CC(=O)N(C)[C@@H](CC2CCCCC2)C(=O)N(C)CC(=O)N[C@@H](CCc2ccc(C(F)(F)F)c(Cl)c2)C(=O)N2CCC[C@H]2C(=O)NC2(CCCC2)C(=O)N1C [Compound 1719] ([NMeL]I[Sar][Sar][NMeCha][Sar][hPhe(3-Cl-4-CF3)]P[Ac5c][NMeAhp(2)][NMeD]-Piperidide; lactam N-11) | 7.74 |
| CCCC[C@@H]1NC(=O)[C@H](CC(C)C)N(C)C(=O)C[C@@H](C(=O)N2CCCCC2)N(C)C(=O)[C@H](C2CCCCC2)N(C)C(=O)C2(CCCC2)NC(=O)[C@@H]2CCCN2C(=O)[C@H](CCc2ccc(C(F)(F)F)c(Cl)c2)NC(=O)CN(C)C(=O)[C@H](CC2CCCCC2)N(C)C(=O)CN(C)C(=O)CN(C)C1=O [Compound 1723] ([NMeL][Nle][Sar][Sar][NMeCha][Sar][hPhe(3-Cl-4-CF3)]P[Ac5c][NMeChg][NMeD]-Piperidide; lactam N-11) | 8.44 |
| CC[C@H](C)[C@@H]1NC(=O)[C@H](C)N(C)C(=O)C[C@@H](C(=O)N2CCCCC2)N(C)C(=O)[C@H](C(C)C)N(C)C(=O)C2(CCCC2)NC(=O)[C@@H]2CCCN2C(=O)[C@H](CCc2ccc(C(F)(F)F)c(Cl)c2)NC(=O)[C@H]2CCCN2C(=O)[C@H](Cc2ccc(F)cc2)N(C)C(=O)[C@@H]2CCCN2C(=O)CN(C)C1=O [Compound 1725] ([NMeA]I[Sar]P[NMePhe(4-F)][dP][hPhe(3-Cl-4-CF3)]P[Ac5c][NMeV][NMeD]-Piperidide; lactam N-11) | 7.64 |
| CC[C@H](C)[C@@H]1NC(=O)[C@H](C)N(C)C(=O)C[C@@H](C)NC(=O)[C@H](C(C)C)N(C)C(=O)C2(CCCC2)NC(=O)[C@@H]2CCCN2C(=O)[C@H](CCc2ccc(C(F)(F)F)c(Cl)c2)NC(=O)[C@H]2CCCN2C(=O)[C@H](Cc2ccccc2)N(C)C(=O)[C@@H]2CCCN2C(=O)CN(C)C1=O [Compound 1730] (cyclo([Ac5c][NMeV][d(β3hA)][NMeA]I[Sar]P[NMeF][dP][hPhe(3-Cl-4-CF3)]P)) | 7.46 |
| CC[C@H](C)[C@@H]1NC(=O)[C@H](C)N(C)C(=O)C[C@@H](C)NC(=O)[C@H](C(C)C)N(C)C(=O)C2(CCCC2)NC(=O)[C@@H]2CCCN2C(=O)[C@H](CCc2ccc(C(F)(F)F)c(Cl)c2)NC(=O)CN(C)C(=O)[C@H](Cc2ccc(F)cc2)N(C)C(=O)[C@@H]2CCCN2C(=O)CN(C)C1=O [Compound 1732] (cyclo([Ac5c][NMeV][d(β3hA)][NMeA]I[Sar]P[NMePhe(4-F)][Sar][hPhe(3-Cl-4-CF3)]P)) | 8.26 |

From US12371454B2, “Cyclic peptide compound having Kras inhibitory action” (priority 2019, dated 2025)
